The target in test [1] is purified cytoplasmic domain KDR protein (VEGFR2) (Homo sapiens (Human), UniProt P35968). Briefly: VEGFR2 Kinase Assay. Conditions: 2.7 μM ATP, poly-Glu-Tyr (4:1) substrate, 15 minute incubation at 30° C.; read-out: Enzyme VEGFR2 IC50. Format: biochemical. As to the method:
VEGFR2 Kinase Assay Biochemical KDR kinase assays were performed in 96 well microtiter plates that were coated overnight with 75 μg/well of poly-Glu-[…]:1) in 10 mM Phosphate Buffered Saline (PBS), pH 7.4. […] Reactions were carried out in 100 μL reaction volumes containing 2.7 μM ATP in kinase buffer (50 mM Hepes buffer pH 7.4, 20 mM MgCl2, 0.1 mM MnCl2 and 0.2 mM Na3VO4). […] Reactions were initiated by the addition 20 ul per well of kinase buffer containing 200-300 ng purified cytoplasmic domain KDR protein (BPS Bioscience, San Diego, Calif.). Following a 15 minute incubation at 30° C., the reactions were washed 2 mls per well PBS-T. 100 μl of a monoclonal anti-phosphotyrosine antibody-peroxidase conjugate diluted 1:10,000 in PBS-T was added to the wells for 30 minutes. Following a 2 mls per well wash with PBS-Tween-20, 100 μl of O-Phenylenediamine Dihydrochloride in phosphate-citrate buffer, containing urea hydrogen peroxide, was added to the wells for 7-10 minutes as a colorimetric substrate for the peroxidase. […] IC50 values for compound inhibition were calculated directly from graphs of optical density (arbitrary units) versus compound concentration following subtraction of blank values.

Test [2] deals with purified cytoplasmic domain PDGFR-b protein (PDGFRβ) (Homo sapiens (Human), UniProt P09619). Briefly: PDGFRβ Kinase Assay. Conditions: 36 μM ATP, poly-Glu-Tyr (4:1) substrate, 60 minute incubation at 30° C.; read-out: Enzyme PDGFβ IC50. Format: biochemical. The protocol: Biochemical PDGFRβ kinase assays were performed in 96 well microtiter plates that were coated overnight with 75 μg of poly-Glu-Tyr (4:1) in 10 mM Phosphate Buffered Saline (PBS), pH 7.4. […] Reactions were carried out in 100 μL reaction volumes containing 36 μM ATP in kinase buffer (50 mM Hepes buffer pH 7.4, 20 mM MgCl2, 0.1 mM MnCl2 and 0.2 mM Na3VO4). […] Reactions were initiated by the addition 20 ul per well of kinase buffer containing 200-300 ng purified cytoplasmic domain PDGFR-b protein (Millipore). Following a 60 minute incubation at 30° C., the reactions were washed 2 mls per well PBS-T. 100 μl of a monoclonal anti-phosphotyrosine antibody-peroxidase conjugate diluted 1:10,000 in PBS-T was added to the wells for 30 minutes. Following a 2 mls per well wash with PBS-Tween-20, 100 μl of O-Phenylenediamine Dihydrochloride in phosphate-citrate buffer, containing urea hydrogen peroxide, was added to the wells for 7-10 minutes as a colorimetric substrate for the peroxidase. […] IC50 values for compound inhibition were calculated directly from graphs of optical density (arbitrary units) versus compound concentration following subtraction of blank values.

In test [3] the test system is VEGFR2 in HUVEC (human umbilical vein endothelial cells). Briefly: VEGFR2 Cellular Assay (FLIPR, VEGF induced increases in intracellular calcium). Format: cell-based. The protocol: VEGFR2 Cellular Assay Automated FLIPR (Fluorometric Imaging Plate Reader) technology was used to screen for inhibitors of VEGF induced increases in intracellular calcium levels in fluorescent dye loaded endothelial cells. HUVEC (human umbilical vein endothelial cells) (Clonetics) were seeded in 384-well fibronectin coated black-walled plates overnight @37° C./5% CO2. Cells were loaded with calcium indicator Fluo-4 for 45 minutes at 37° C. Cells were washed 2 times (EIx405, Biotek Instruments) to remove extracellular dye. For screening, cells were pre-incubated with test agents for 30 minutes, at a single concentration (10 uM) or at concentrations ranging from 0.0001 to 10.0 uM followed by VEGF165 stimulation (10 ng/mL). Changes in fluorescence at 516 nm were measured simultaneously in all 384 wells using a cooled CCD camera. Data were generated by determining max-min fluorescence levels for unstimulated, stimulated, and drug treated samples. IC50 values for test compounds were calculated from % inhibition of VEGF stimulated responses in the absence of inhibitor.

Where [4] appears, read: read-out: Receptor VEGFR2 IC50 (nM).

Like-named read-outs stand apart in the source and are kept apart here. Where only a bound is given, the exact number is not on record here.

This passage reports IC50 results from patent US9353093B2, “Indole-1-carboxamides as kinase inhibitors” (Allergan, Inc., priority 2014, dated 2016).

purified cytoplasmic domain PDGFR-b protein (PDGFRβ), sequence (P09619 554-1106): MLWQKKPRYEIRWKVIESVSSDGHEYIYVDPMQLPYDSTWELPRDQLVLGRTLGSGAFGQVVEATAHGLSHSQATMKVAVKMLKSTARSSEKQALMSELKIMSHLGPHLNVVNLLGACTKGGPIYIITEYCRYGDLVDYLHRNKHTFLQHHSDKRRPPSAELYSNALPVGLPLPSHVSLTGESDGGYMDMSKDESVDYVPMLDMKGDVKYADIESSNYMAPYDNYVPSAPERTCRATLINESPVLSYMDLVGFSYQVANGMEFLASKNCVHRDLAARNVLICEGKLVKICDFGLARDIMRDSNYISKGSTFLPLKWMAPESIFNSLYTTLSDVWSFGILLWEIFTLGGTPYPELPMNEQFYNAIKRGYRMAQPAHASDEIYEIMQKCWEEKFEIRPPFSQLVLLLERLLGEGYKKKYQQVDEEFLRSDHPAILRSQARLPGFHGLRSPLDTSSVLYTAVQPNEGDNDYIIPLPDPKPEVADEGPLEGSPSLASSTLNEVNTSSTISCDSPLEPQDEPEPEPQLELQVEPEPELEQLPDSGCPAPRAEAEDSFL
purified cytoplasmic domain KDR protein (VEGFR2), sequence (P35968 786-1356): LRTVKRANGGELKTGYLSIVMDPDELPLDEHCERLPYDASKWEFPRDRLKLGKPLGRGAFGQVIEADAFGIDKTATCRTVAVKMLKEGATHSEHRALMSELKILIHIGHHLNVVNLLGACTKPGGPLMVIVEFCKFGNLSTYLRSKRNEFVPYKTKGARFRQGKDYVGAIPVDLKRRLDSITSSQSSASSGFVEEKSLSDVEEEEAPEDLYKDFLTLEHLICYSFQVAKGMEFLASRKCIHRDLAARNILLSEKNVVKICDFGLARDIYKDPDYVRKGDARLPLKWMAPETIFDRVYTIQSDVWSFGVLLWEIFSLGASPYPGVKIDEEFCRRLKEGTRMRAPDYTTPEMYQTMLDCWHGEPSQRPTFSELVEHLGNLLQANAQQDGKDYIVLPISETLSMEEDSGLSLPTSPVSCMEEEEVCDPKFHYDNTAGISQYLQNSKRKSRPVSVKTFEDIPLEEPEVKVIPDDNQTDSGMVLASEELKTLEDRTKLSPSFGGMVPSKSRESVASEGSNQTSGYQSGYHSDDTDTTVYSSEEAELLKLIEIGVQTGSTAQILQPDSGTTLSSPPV

As a reminder, the IC50 is the concentration at which inhibition is half-maximal. Turning to `Cc1cccc(C(=O)Nc2cccc(-c3cc4ccccc4n3C(N)=O)c2)c1` [Example 24, 2-{3-[(3-methylbenzoyl)amino]phenyl}-1H-indole-1-carboxamide], the IC50 in test [1] worked out at 1170 nM.

Turning to `NC(=O)n1c(-c2ccc(NC(=O)Nc3cccc(C(F)(F)F)c3)cc2)cc2ccccc21` [Example 6, 2-{4-[({[3-(trifluoromethyl)phenyl]amino}carbonyl)amino]phenyl}-1H-indole-1-carboxamide], the IC50 in test [2] worked out at 28 nM; in test [3] (setting [4]) it was 58 nM; in test [1] it was 9 nM.

Regarding `CCc1cccc(NC(=O)Nc2cccc(-c3cc4ccccc4n3C(N)=O)c2)c1` [Example 20, 2-[3-({[(3-ethylphenyl)amino]carbonyl}amino)phenyl]-1H-indole-1-carboxamide], the 50% inhibitory concentration (IC50) in test [1] turned out to be 240 nM.

Take `Cc1ccc(F)c(NC(=O)Nc2cccc(-c3cc4ccccc4n3C(N)=O)c2)c1` [Example 23, 2-[3-({[(2-fluoro-5-methylphenyl)amino]carbonyl}amino)phenyl]-1H-indole-1-carboxamide]: the concentration for half-maximal inhibition (IC50) in test [2] came to 3030 nM; in test [1] it was 334 nM.

For `CCc1cccc(NC(=O)Nc2ccc(-c3cc4ccccc4n3C(N)=O)cc2)c1` [Example 1, 2-[4-({[(3-ethylphenyl)amino]carbonyl}amino)phenyl]-1H-indole-1-carboxamide], in test [3] (setting [4]), the IC50 was 13 nM.

Consider `CCc1cccc(NC(=O)Nc2csc(-c3cc4ccccc4n3C(N)=O)c2)c1` [Example 28, 2-[4-({[(3-ethylphenyl)amino]carbonyl}amino)-2-thienyl]-1H-indole-1-carboxamide], for which the concentration for half-maximal inhibition (IC50) was found to be 264 nM in test [2] and 60 nM in test [1].

Take `Cc1ccc(NC(=O)Nc2ccc(-c3cc4ccccc4n3C(N)=O)cc2)cc1` [Example 11, 2-[4-({[(4-methylphenyl)amino]carbonyl}amino)phenyl]-1H-indole-1-carboxamide]: the concentration for half-maximal inhibition (IC50) was 11 nM in test [2]; more than 10000 nM in test [3] (VEGF165 stimulation (10 ng/mL), 30 minutes pre-incubation, Fluo-4 calcium, read-out: Receptor VEGFR2 IC50); 23 nM in test [1].

On to `NC(=O)n1c(-c2cccc(NC(=O)Nc3cccc(C(F)(F)F)c3)c2)cc2ccccc21` [Example 21, 2-{3-[({[3-(trifluoromethyl)phenyl]amino}carbonyl)amino]phenyl}-1H-indole-1-carboxamide], for which the IC50 in test [2] was 3310 nM; in test [1] it was 254 nM.

Take `NC(=O)n1c(-c2cccc(NC(=O)Nc3ccc(F)c(Cl)c3)c2)cc2ccccc21` [Example 22, 2-[3-({[(3-chloro-4-fluorophenyl)amino]carbonyl}amino)phenyl]-1H-indole-1-carboxamide]: the IC50 in test [2] was more than 10000 nM; in test [1], 249 nM.

In the case of `Cc1ccoc1C(=O)Nc1csc(-c2cc3ccccc3n2C(N)=O)c1` [Example 32, 2-{4-[(3-methyl-2-furoyl)amino]-2-thienyl}-1H-indole-1-carboxamide], the IC50 was more than 10000 nM in test [2] and 3180 nM in test [1].

Regarding `Cc1ccccc1NC(=O)Nc1ccc(-c2cc3ccccc3n2C(N)=O)cc1` [Example 12, 2-[4-({[(2-methylphenyl)amino]carbonyl}amino)phenyl]-1H-indole-1-carboxamide], the IC50 was found to be 118 nM in test [2] and 174 nM in test [1].

As to `Cc1cccc(NC(=O)Nc2ccc(-c3cc4ccccc4n3C(N)=O)cc2)c1` [Example 3, 2-[4-({[(3-methylphenyl)amino]carbonyl}amino)phenyl]-1H-indole-1-carboxamide], the results for the 50% inhibitory concentration (IC50) in test [2], in test [3] (setting [4]) and in test [1] were 14 nM, 17 nM and 6 nM, respectively.

As to `Cc1ccc(F)c(C(=O)Nc2csc(-c3cc4ccccc4n3C(N)=O)c2)c1` [Example 33, 2-{4-[(2-fluoro-5-methylbenzoyl)amino]-2-thienyl}-1H-indole-1-carboxamide], the IC50 in test [2] is more than 10000 nM; in test [1], 3650 nM.

On to `NC(=O)n1c(-c2ccc(NC(=O)Nc3cc(C(F)(F)F)ccc3F)cc2)cc2ccccc21` [Example 9, 2-{4-[({[2-fluoro-5-(trifluoromethyl)phenyl]amino}carbonyl)amino]phenyl}-1H-indole-1-carboxamide], for which the IC50 in test [2] came out at 55 nM.

Regarding `NC(=O)n1c(-c2ccc(NC(=O)Nc3ccc(F)c(Cl)c3)cc2)cc2ccccc21` [Example 5, 2-[4-({[(3-chloro-4-fluorophenyl)amino]carbonyl}amino)phenyl]-1H-indole-1-carboxamide], the half-maximal inhibitory concentration (IC50) in test [2] turned out to be 19 nM.

Take `Cc1ccc(F)c(NC(=O)Nc2csc(-c3cc4ccccc4n3C(N)=O)c2)c1` [Example 29, 2-[4-({[(2-fluoro-5-methylphenyl)amino]carbonyl}amino)-2-thienyl]-1H-indole-1-carboxamide]: the IC50 was 4610 nM in test [2] and 94 nM in test [1].

As to `NC(=O)n1c(-c2ccc(NC(=O)Nc3ccccc3)cc2)cc2ccccc21` [Example 10, 2-{4-[(anilinocarbonyl)amino]phenyl}-1H-indole-1-carboxamide], the figures for the IC50 in test [2], in test [3] (setting [4]) and in test [1] were 23 nM, 150 nM and 22 nM, respectively.

`NC(=O)n1c(-c2cc(NC(=O)Nc3cccc(C(F)(F)F)c3)cs2)cc2ccccc21` [Example 27, 2-{4-[({[3-(trifluoromethyl)phenyl]amino}carbonyl)amino]-2-thienyl}-1H-indole-1-carboxamide]: in test [2], the IC50 is 152 nM.

Consider `NC(=O)n1c(-c2cc(NC(=O)Nc3ccc(Cl)c(C(F)(F)F)c3)cs2)cc2ccccc21` [Example 31, 2-{4-[({[4-chloro-3-(trifluoromethyl)phenyl]amino}carbonyl)amino]-2-thienyl}-1H-indole-1-carboxamide], for which the IC50 in test [2] worked out at 151 nM.

Regarding `COc1cccc(NC(=O)Nc2ccc(-c3cc4ccccc4n3C(N)=O)cc2)c1` [Example 8, 2-[4-({[(3-methoxyphenyl)amino]carbonyl}amino)phenyl]-1H-indole-1-carboxamide], the IC50 in test [2] was determined as 12 nM; in test [3] (setting [4]), 45 nM; in test [1] it was 11 nM.

Turning to `Cc1cccc(NC(=O)Nc2csc(-c3cc4ccccc4n3C(N)=O)c2)c1` [Example 26, 2-[4-({[(3-methylphenyl)amino]carbonyl}amino)-2-thienyl]-1H-indole-1-carboxamide], in test [2], the IC50 amounted to 1140 nM.

For the compound `Cc1cccc(NC(=O)Nc2cccc(-c3cc4ccccc4n3C(N)=O)c2)c1` [Example 19, 2-[3-({[(3-methylphenyl)amino]carbonyl}amino)phenyl]-1H-indole-1-carboxamide], in test [1], the IC50 came to 276 nM.

Consider `Cc1ccc(F)c(NC(=O)Nc2ccc(-c3cc4ccccc4n3C(N)=O)cc2)c1` [Example 7, 2-[4-({[(2-fluoro-5-methylphenyl)amino]carbonyl}amino)phenyl]-1H-indole-1-carboxamide], for which the IC50 in test [2] was determined as 20 nM; in test [3] (setting [4]) it was 41 nM; in test [1], 9 nM.

Turning to `NC(=O)n1c(-c2cc(NC(=O)Nc3ccc(F)c(Cl)c3)cs2)cc2ccccc21` [Example 30, 2-[4-({[(3-chloro-4-fluorophenyl)amino]carbonyl}amino)-2-thienyl]-1H-indole-1-carboxamide], the results for the IC50 in test [2] and in test [1] were more than 10000 nM and 83 nM, respectively.

Take `COC(=O)c1ccc2cc(-c3ccc(NC(=O)Nc4cccc(C)c4)cc3)n(C(N)=O)c2c1` [Example 2, methyl 1-(aminocarbonyl)-2-[4-({[(3-methylphenyl)amino]carbonyl}amino)phenyl]-1H-indole-6-carboxylate]: the IC50 in test [2] is 10 nM; in test [3] (setting [4]), 11 nM; in test [1], 5 nM.
